Test results reported in patent publication US7915293B2, “Ubiquitin ligase inhibitors” (Rigel Pharmaceuticals, Inc., priority 2003, dated 2011).
Values belong to the molecule of their own block, whether it stands above or below them.

Molecular target: E3 (His-APC11/APC2-"APC") (Homo sapiens, UniProt Q9NYG5+Q9UJX6)
Assay: Plate-based E3 ligase assay (APC FLAG), auto-ubiquitination
Format: biochemical
Set-up: key: “+” indicates that the compound exibits inhibitory activity; “−” indicates that low or no inhibitory activity was observed
Details: 8 concentrations tested
Method: E3 (His-APC11/APC2-“APC”) auto-ubiquitination was measured as described in U.S. patent application Ser. No. 09/826,312 (Publication No. US-2002-0042083-A1), which is incorporated herein in its entirety. Details of the protocol are described below. Activity in the presence of the compound was determined relative to a parallel control in which only DMSO was added. Values of the IC50 were typically determined using 6 or 8 different concentrations of the compound, although as few as 2 concentrations may be used to approximate the IC50 value.
Nickel-coated 96-well plates (Pierce 15242) were blocked for 1 hour with 100 μl of blocking buffer at room temperature. The plates were washed 4 times with 225 μl of 1×PBS and 80 μl of the reaction buffer were added that contained 100 ng/well of Flag-ubiquitin. To this, 10 μl of the test compound diluted in DMSO were added. After the test compound was added, 10 μl of E1 (human), E2 (Ubch5c), and APC in Protein Buffer was added to obtain a final concentration of 5 ng/well of E1, 20 ng/well of E2 and 100 ng/well of APC. The plate were shaken for 10 minutes and incubated at room temperature for 1 hour. After incubation, the plates were washed 4 times with 225 μl of 1×PBS and 100 μl/well of Antibody Mix were added to each well. The plates were incubate at room temperature for another hour after which they were washed 4 times with 225 μl of 1×PBS and 100 μl/well of Lumino substrate were added to each well. The luminescence was measured by using a BMG luminescence microplate reader.
To prepare the Blocking Buffer (1 liter; 1% Casein in 1×PBS), 10 grams of Casein (Hammersten Grade Casein from Gallard-Schlesinger Inc. #440203) were placed into 1 liter of 1×PBS, stirred on a hot plate and kept between 50-60° C. for an hour. The buffer was allowed to cool to room temperature and then filtered using a Buchner Funnel (Buchner filter funnel 83 mm 30310-109) and Whatman filter paper (Whatman Grade No. 1 Filter paper 28450-070). It was stored at 4° C. until used.
The reaction buffer consisted of 62.5 mM Tris pH 7.6 (Trizma Base—Sigma T-8524), 3 mM MgCl2 (Magnesium Chloride—Sigma M-2393), 1 mM DTT (Sigma D-9779), 2.5 mM ATP (Roche Boehringer Mann Corp. 635-316), 100 ng/well of Flag-ubiquitin, 0.1% BSA (Sigma A-7906), and 0.05% Tween-20 (Sigma P-7949).
The Protein Buffer consisted of 20 mM Tris pH 7.6, 10% glycerol (Sigma G-5516) and 1 mM DTT.
The antibody mix consisted of 0.25% BSA (Sigma A-7906) in 1×PBS, 1/50,000 anti-Flag (Sigma F-3165), 1/100,000 of anti-Mouse IgG-HRP (Jackson Immunoresearch #115-035-146).
The substrate mix consisted of SuperSignal Substrate from Pierce (catalog number 37070ZZ) and was prepared by mixing 100 ml of the peroxide solution, 100 ml of the enhancer solution and 100 ml of Milli-Q® water.

E3 (His-APC11/APC2-"APC"), sequence (Q9NYG5 whole entry): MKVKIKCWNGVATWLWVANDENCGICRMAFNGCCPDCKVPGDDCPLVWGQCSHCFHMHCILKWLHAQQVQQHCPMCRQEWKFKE
E3 (His-APC11/APC2-"APC"), sequence (Q9UJX6 whole entry): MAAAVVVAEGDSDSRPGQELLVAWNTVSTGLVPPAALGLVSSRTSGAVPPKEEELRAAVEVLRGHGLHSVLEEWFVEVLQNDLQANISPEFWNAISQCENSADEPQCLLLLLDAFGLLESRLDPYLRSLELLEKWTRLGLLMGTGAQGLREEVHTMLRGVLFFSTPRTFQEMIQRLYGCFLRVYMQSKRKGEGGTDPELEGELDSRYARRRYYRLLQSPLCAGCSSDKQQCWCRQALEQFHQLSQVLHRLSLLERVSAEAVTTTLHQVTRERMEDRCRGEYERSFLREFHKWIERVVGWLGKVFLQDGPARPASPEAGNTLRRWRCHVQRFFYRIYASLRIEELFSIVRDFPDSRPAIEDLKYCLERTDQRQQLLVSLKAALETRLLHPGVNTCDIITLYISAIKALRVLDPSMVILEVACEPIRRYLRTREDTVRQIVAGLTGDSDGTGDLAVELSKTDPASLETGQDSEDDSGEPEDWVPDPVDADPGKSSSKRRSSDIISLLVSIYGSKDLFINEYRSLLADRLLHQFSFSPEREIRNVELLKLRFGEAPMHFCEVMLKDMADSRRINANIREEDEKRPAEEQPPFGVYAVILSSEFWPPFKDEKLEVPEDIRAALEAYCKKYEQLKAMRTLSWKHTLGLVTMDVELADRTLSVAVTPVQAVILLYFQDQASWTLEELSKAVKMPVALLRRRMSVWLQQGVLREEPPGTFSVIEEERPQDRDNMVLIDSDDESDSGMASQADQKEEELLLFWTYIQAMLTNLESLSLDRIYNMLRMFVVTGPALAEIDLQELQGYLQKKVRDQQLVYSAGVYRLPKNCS

SMILES: O=[N+]([O-])c1ccc(Oc2c(Cl)cc(S(=O)(=O)NCC3CC3)cc2Cl)c(Cl)c1 [Compound 120, N-(Cyclopropylmethyl)-3,5-Dichloro-4-(2-Chloro-4-Nitrophenoxy) Benzenesulfonamide]
APC Flag 8 pt: +

SMILES: NS(=O)(=O)c1cc(Cl)c(Oc2ccc([N+](=O)[O-])cc2Cl)c(Cl)c1 [Compound 124, 3,5-dichloro-4-(2-chloro-4-nitrophenoxy)benzenesulfonamide]
APC Flag 8 pt: +

SMILES: CC(C)Oc1ccc(NS(=O)(=O)c2cc(Cl)c(Oc3ccc([N+](=O)[O-])cc3Cl)c(Cl)c2)cc1 [Compound 134, 3,5-dichloro-4-(2-chloro-4-nitrophenoxy)-N-[4-isopropoxyphenyl]benzenesulfonamide]
APC Flag 8 pt: +

SMILES: O=C(NCC1CC1)[C@@H]1CCCN1S(=O)(=O)c1cc(Cl)c(Oc2ccc([N+](=O)[O-])cc2Cl)c(Cl)c1 [Compound 139, N-(cyclopropylmethyl)-1-{[3,5-dichloro-4-(2-chloro-4-nitrophenoxy)phenyl]sulfonyl}prolinamide]
APC Flag 8 pt: −

SMILES: O=C(NCC1CC1)c1cccc(NS(=O)(=O)c2cc(Cl)c(Oc3ccc([N+](=O)[O-])cc3Cl)c(Cl)c2)c1 [Compound 151, N-(cyclopropylmethyl)-3-({[3,5-dichloro-4-(2-chloro-4-nitrophenoxy)phenyl]sulfonyl}amino)benzamide]
APC Flag 8 pt: +

SMILES: COc1ccc(Cl)cc1NS(=O)(=O)c1cc(Cl)c(Oc2ccc([N+](=O)[O-])cc2Cl)c(Cl)c1 [Compound 164, 3,5-dichloro-N-(5-chloro-2-methoxyphenyl)-(2-chloro-4-nitrophenoxy)lbenzenesulfonamide]
APC Flag 8 pt: +

SMILES: O=[N+]([O-])c1ccc(Oc2c(Cl)cc(S(=O)(=O)N3CCOCC3)cc2Cl)c(Cl)c1 [Example 15, 4-{[3,5-dichloro-4-(2-chloro-4-nitro-phenoxy)phenyl]sulfonyl}morpholine]
APC Flag 8 pt: −

SMILES: CC1CCN(S(=O)(=O)c2cc(Cl)c(Oc3ccc([N+](=O)[O-])cc3Cl)c(Cl)c2)CC1 [Example 19, 1-{[3,5-dichloro-4-(2-chloro-4-nitrophenoxy)phenyl]sulfonyl}-4-methylpiperidine]
APC Flag 8 pt: −

SMILES: CC1CC(C)CN(S(=O)(=O)c2cc(Cl)c(Oc3ccc([N+](=O)[O-])cc3Cl)c(Cl)c2)C1 (stereo not drawn) [Example 20, 1-{[3,5-dichloro-4-(2-chloro-4-nitrophenoxy)phenyl]sulfonyl}-3,5-dimethylpiperidine]
APC Flag 8 pt: +

SMILES: O=[N+]([O-])c1ccc(Oc2c(Cl)cc(S(=O)(=O)N3CCCC3)cc2Cl)c(Cl)c1 [Example 22, 1-{[3,5-dichloro-4-(2-chloro-4-nitrophenoxy)phenyl]sulfonyl}pyrrolidine]
APC Flag 8 pt: −

SMILES: CC(=N)NS(=O)(=O)c1cc(Cl)c(Oc2ccc([N+](=O)[O-])cc2)c(Cl)c1 [Example 63, N-{[3,5-dichloro-4-(4-nitrophenoxy)phenyl]sulfonyl}ethanimidamide]
APC Flag 8 pt: −

SMILES: O=C1CCC(CCCNS(=O)(=O)c2cc(Cl)c(Oc3ccc([N+](=O)[O-])cc3Cl)c(Cl)c2)N1 (stereo not drawn) [Example 122, 3,5-dichloro-4-(2-chloro-4-nitrophenoxy)-N-[3-(5-oxopyrrolidin-2-yl)propyl] benzenesulfonamide]
APC Flag 8 pt: +

SMILES: O=[N+]([O-])c1ccc(Oc2c(Cl)cc(S(=O)(=O)NCCCOc3cc(Cl)cc(Cl)c3)cc2Cl)c(Cl)c1 [Example 126, 3,5-dichloro-4-(2-chloro-4-nitrophenoxy)-N-[3-(3,5-dichlorophenoxy)propyl] benzenesulfonamide]
APC Flag 8 pt: −

SMILES: O=[N+]([O-])c1ccc(Oc2c(Cl)cc(S(=O)(=O)NCCc3ccc(Cl)cc3Cl)cc2Cl)c(Cl)c1 [Example 127, 3,5-dichloro-4-(2-chloro-4-nitrophenoxy)-N-[2-(2,4-dichlorophenyl)ethyl]benzene-sulfonamide]
APC Flag 8 pt: +

SMILES: COc1ccc(CCNS(=O)(=O)c2cc(Cl)c(Oc3ccc([N+](=O)[O-])cc3Cl)c(Cl)c2)cc1 [Example 129, 3,5-dichloro-4-(2-chloro-4-nitrophenoxy)-N-[2-(4-methoxyphenyl)ethyl]benzene-sulfonamide]
APC Flag 8 pt: +

SMILES: O=[N+]([O-])c1ccc(Oc2c(Cl)cc(S(=O)(=O)NC3CCNCC3)cc2Cl)c(Cl)c1 [Example 130, 3,5-dichloro-4-(2-chloro-4-nitrophenoxy)-N-piperidin-4-ylbenzenesulfonamide]
APC Flag 8 pt: −

SMILES: O=[N+]([O-])c1ccc(Oc2c(Cl)cc(S(=O)(=O)NCc3ccncc3)cc2Cl)c(Cl)c1 [Example 133, 3,5-dichloro-4-(2-chloro-4-nitrophenoxy)-N-(pyridin-4-ylmethyl)benzenesulfonamide]
APC Flag 8 pt: −

SMILES: CNS(=O)(=O)c1cc(Cl)c(Oc2ccc([N+](=O)[O-])cc2Cl)c(Cl)c1 [Example 135, 3,5-dichloro-4-(2-chloro-4-nitrophenoxy)-N-methylbenzenesulfonamide]
APC Flag 8 pt: +

Second part, the molecule after the results:

APC Flag 8 pt: −
SMILES: O=[N+]([O-])c1ccc(Oc2c(Cl)cc(S(=O)(=O)NCc3ccc(Br)cc3)cc2Cl)c(Cl)c1 [Compound 128, N-(4-bromobenzyl)-3,5-dichloro-4-(2-chloro-4-nitrophenoxy)benzenesulfonamide]

APC Flag 8 pt: −
SMILES: CN(c1cccc(Cl)c1)S(=O)(=O)c1cc(Cl)c(Oc2ccc([N+](=O)[O-])cc2Cl)c(Cl)c1 [Compound 153, 3,5-dichloro-4-(2-chloro-4-nitrophenoxy)-N-(3-chlorophenyl)-N-methylbenzenesulfonamide]

APC Flag 8 pt: −
SMILES: O=C(Nc1cc(Cl)ccc1Cl)N1CCC(Oc2ncccn2)CC1 [Compound 310, N-(2,5-dichlorophenyl)-4-(pyrimidin-2-yloxy)piperidine-1-carboxamide]

APC Flag 8 pt: −
SMILES: N=C(NS(=O)(=O)c1cc(Cl)c(Oc2ccc([N+](=O)[O-])cc2)c(Cl)c1)c1ccc(Cl)cc1 [Example 34, 4-chloro-N-{[3,5-dichloro4-(4-nitrophenoxy)phenyl]sulfonyl}benzenecarboximidamide]

APC Flag 8 pt: +
SMILES: O=S(=O)(c1ccc(Oc2ccc(Cl)cc2Cl)cc1F)N1CCCCC1 [Example 119, 1-{[4-(2,4-dichlorophenoxy)-2-fluorophenyl]sulfonyl)piperidine]

APC Flag 8 pt: −
SMILES: O=[N+]([O-])c1ccc(Oc2c(Cl)cc(S(=O)(=O)NCC3CCCO3)cc2Cl)c(Cl)c1 (stereo not drawn) [Example 121, 3,5-dichloro-4-(2-chloro-4-nitrophenoxy)-N-(tetrahydrofuran-2-ylmethyl)benzene-sulfonamide]

APC Flag 8 pt: −
SMILES: O=[N+]([O-])c1ccc(Oc2c(Cl)cc(S(=O)(=O)NCc3ccc(Cl)cc3)cc2Cl)c(Cl)c1 [Example 125, 3,5-dichloro-N-(4-chlorobenzyl)-4-(2-chloro-4-nitrophenoxy)benzenesulfonamide]

APC Flag 8 pt: +
SMILES: CN(C)CCCNS(=O)(=O)c1cc(Cl)c(Oc2ccc([N+](=O)[O-])cc2Cl)c(Cl)c1 [Example 131]

APC Flag 8 pt: −
SMILES: O=[N+]([O-])c1ccc(Oc2c(Cl)cc(S(=O)(=O)NCCN3CCOCC3)cc2Cl)c(Cl)c1 [Example 132, 3,5-dichloro-4-(2-chloro-4-nitrophenoxy)-N-(2-morpholin-4-ylethyl)benzenesulfonamide]
